Measurements: US9687522B2, “Methods of treating a subject afflicted with an autoimmune disease using predictive biomarkers of clinical response to glatiramer acetate therapy in multiple sclerosis” (TEVA PHARMACEUTICAL INDUSTRIES, LTD., priority 2010, dated 2017)

How the values were obtained:
[1] = system: caspase-1; assay: Serum caspase-1 by ELISA in GA-treated MS patients; format: in vivo, human
Text: (§1) Approximately 60 cc of blood was obtained by venipuncture from each MS patient pre-treatment and at successive time points during treatment (3 months, 6 months, 9-12 months and 24 months). PBMC were purified using Ficoll-Hypaque gradients as described in the supplier's protocol (ICN Biomedicals Inc. Ohio, USA). Samples from collaborating centers were sent via overnight FedEx™ delivery at room temperature and processed immediately upon arrival.
(§2) Interleukin-18 and caspase-1 levels were detected by human ELISA kits (Sandwich ELISA, Bender Nedaystems, USA). The sensitivity of the ELISA was 9.2 and 3.3 pg/ml for IL-18 and caspase-1 respectively. TGF-β, TNF-α, IL-4, IFN-γ, IL-17 and IL-10 levels were detected by human ELISA kits from ebioscience (San Diego Calif., 92121 USA). The sensitivity of the ebioscience kits were 60 pg/ml, 4 pg/ml, 2 pg/ml, 4 pg/ml, 4 pg/ml and 2 pg/ml respectively. BDNF was detected by the Human BDNF ELISA kit from Chemicon International (catalog #CYT306). The sensitivity of the BDNF ELISA was 7.8 pg/ml. […] Duplicates should be within 20% of the mean.

[2] = system: IL-18; assay: IL-18 by ELISA in ex-vivo PBMC supernatant of GA-treated MS patients; format: cell-based, human; details: both groups
Procedure: as §1
2×10^5 PBMC/well were seeded in 96 well U-bottom micro titer plate in the absence of antigen (unstimulated condition) (US) or the presence of GA at 40 and 100 μg/ml (Teva Pharmaceutical Industries, Ltd., Israel), tetanus toxoid (TT 5 μg) obtained from UMASS (University of Mass, Worcester, Mass.). The latter was used as a control antigen. Supernatants were collected from cultured cells at days 1, 3 and 5 for various assays. After 5 days, 1 μCi ^3H-thymidine was added. […] Incorporated radioactivity was measured using a liquid Scintillation counter (Wallac MicroBeta Trilux, PerkinElmer, Boston, Mass.).
Interleukin-18 and caspase-1 levels were detected by human ELISA kits (Sandwich ELISA, Bender Nedaystems, USA). […] TGF-β, TNF-α, IL-4, IFN-γ, IL-17 and IL-10 levels were detected by human ELISA kits from ebioscience (San Diego Calif., 92121 USA). […] BDNF was detected by the Human BDNF ELISA kit from Chemicon International (catalog #CYT306). […]

[3] = system: IL-17; assay: IL-17 by ELISA in ex-vivo PBMC supernatant of GA-treated MS patients; format: cell-based, human
Procedure: as §1
2×10^5 PBMC/well were seeded in 96 well U-bottom micro titer plate in the absence of antigen (unstimulated condition) (US) or the presence of GA at 40 and 100 μg/ml (Teva Pharmaceutical Industries, Ltd., Israel), tetanus toxoid (TT 5 μg) obtained from UMASS (University of Mass, Worcester, Mass.). The latter was used as a control antigen. Supernatants were collected from cultured cells at days 1, 3 and 5 for various assays. After 5 days, 1 μCi ^3H-thymidine was added. Cells were harvested 18 hours later using TOMTEC cell harvester (TOMTEC, Hamden Conn.). Incorporated radioactivity was measured using a liquid Scintillation counter (Wallac MicroBeta Trilux, PerkinElmer, Boston, Mass.).
as §2

[4] = system: relapsing-remitting MS (RR-MS) patients; assay: Prospective 2-year study of GA-treated RR-MS patients: ARR and EDSS; format: in vivo, human
Procedure: This is a prospective study in which sixty-two relapsing-remitting MS (RR-MS) patients treated with GA were classified clinically as GA-R (N=42) or GA-HR/NR (N=20) after 2 years of treatment. Cytokine levels, brain-derived neurotrophic factor (BDNF) levels, and T-cell proliferation to GA were analyzed at baseline, 3, 6, 9-12 and 24 months and assessed for their predictive value of clinical response after 2 years of treatment.
Sixty-two patients diagnosed with definite RR-MS (relapsing-remitting MS) according to the McDonald criteria (33) were included in the study. Following recruitment, the patients were treated with GA for at least 2 years. Subjects were closely followed up at the University of Medicine and Dentistry New Jersey (UMDNJ)-Robert Wood Johnson Medical School, University of Maryland Center for MS, the Gimbel MS Center, Teaneck, N.J. and the Carolina Medical Center-MS Center, Charlotte, N.C. Fifty patients were females with a mean age of 41±10.3 years and 12 were males with a mean age of 39.0±11.9 years. Patients had at least one relapse during the year prior to initiation of GA therapy (Table 2). After at least 2 years on GA therapy, patients were classified as GA-R (n=42) or GA-HR/NR (n=20) based on a clinical criteria more stringent than those recently reported in the literature. (34) A responder (R) is a patient with an annual relapse rate (ARR)<0.5 and no evidence of disease progression as measured by EDSS (expanded disability status scale). A hypo/non-responder (HR/NR) is a patient with an ARR>0.5 and/or with progression in the EDSS of at least 1 point sustained for 6 months (Table 3).
The patients were classified as GA-responders or hypo/non-responders after being treated with GA for at least 24 months, based on their ARR and progression in disability while on treatment (Tables 1 and 3). The mean disease duration was 8.3±6.1 years for the GA-R group and 12.2±8.2 years for GA-HR/NR group. The mean treatment duration was 26.4±6.6 months for the GA-R group and 26.1±5.9 months for the GA-HR/NR group.

Substance: Glatiramer acetate [GA]
- Serum caspase-1 level ([1]; HR/NR, 3 mo): 284 ± 35 pg/mL
- Serum caspase-1 level ([1]; HR/NR, 6 mo): 302 ± 42 pg/mL
- Serum caspase-1 level ([1]; HR/NR, 9-12 mo): 255 ± 21 pg/mL
- Serum caspase-1 level ([1]; HR/NR, 24 mo): 276 ± 7 pg/mL
- Serum caspase-1 level ([1]; HR/NR, Pre-Rx): 300 ± 29 pg/mL
- Serum caspase-1 level ([1]; R, 3 mo): 279 ± 23 pg/mL
- Serum caspase-1 level ([1]; R, 6 mo): 187 ± 21 pg/mL
- Serum caspase-1 level ([1]; R, 9-12 mo): 288 ± 12 pg/mL
- Serum caspase-1 level ([1]; R, 24 mo): 282 ± 11 pg/mL
- Serum caspase-1 level ([1]; R, Pre-Rx): 325 ± 26 pg/mL
- Δ Caspace 6 months, Median (Non-Responders) ([1]; serum, change from baseline): −19
- Δ Caspace 6 months, Median (Responders) ([1]; serum, change from baseline): −142.5
- Supernatant IL-18 levels, change during GA treatment [2]: did not show any significant changes from baseline
- Supernatant IL-17 level ([3]; HR/NR, 3 mo): 160 ± 25 pg/mL
- Supernatant IL-17 level ([3]; HR/NR, 6 mo): 146 ± 25 pg/mL
- Supernatant IL-17 level ([3]; HR/NR, 9-12 mo): 129 ± 7.3 pg/mL
- Supernatant IL-17 level ([3]; HR/NR, 24 mo): 179 ± 21 pg/mL
- Supernatant IL-17 level ([3]; HR/NR, Pre-Rx): 178 ± 25 pg/mL
- Supernatant IL-17 level ([3]; R, 3 mo): 184 ± 40 pg/mL
- Supernatant IL-17 level ([3]; R, 6 mo): 60 ± 35 pg/mL
- Supernatant IL-17 level ([3]; R, 9-12 mo): 134 ± 12 pg/mL
- Supernatant IL-17 level ([3]; R, 24 mo): 167 ± 18 pg/mL
- Supernatant IL-17 level ([3]; R, Pre-Rx): 176 ± 31 pg/mL
- Mean ARR ([4]; GA-HR/NR, 24 mo Rx): 0.75 ± 0.50
- Mean EDSS ([4]; GA-HR/NR, 24 mo Rx): 3.2 ± 1.37
- Mean ARR ([4]; GA-HR/NR, Pre-Rx): 0.80 ± 0.49
- Mean EDSS ([4]; GA-HR/NR, Pre-Rx): 1.95 ± 0.95
- increase in the EDSS ([4]; GA-HR/NR, during treatment): 1.12 point
- reduction in the ARR ([4]; GA-HR/NR, during treatment): 6.25%
- Mean ARR ([4]; GA-R, 24 mo Rx): 0.14 ± 0.25
- Mean EDSS ([4]; GA-R, 24 mo Rx): 1.57 ± 1.0
- Mean ARR ([4]; GA-R, Pre-Rx): 0.67 ± 0.46
- Mean EDSS ([4]; GA-R, Pre-Rx): 2.18 ± 1.08
- decrease in the EDSS ([4]; GA-R, during treatment): 0.61 point
- reduction in the ARR ([4]; GA-R, during treatment): 79%
